Measured values reported in patent publication EP4741392A1, “1H-PYRAZOLO[4,3-C]PYRIDINE COMPOUND, AND COMPOSITION THEREOF AND USE THEREOF” (Shenzhen TargetRx Co., Ltd., priority 2023, dated 2025).

Legend:
Format in all cases: biochemical
BTK C481S = molecular target: T1, BTK C481S (Homo sapiens, UniProt Q06187, C481S); experiment: Kinase activity inhibition assay (HTRF TK Kit)
T1 construct: purchased Carna 08-547
Summary of the method: (§1)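 Read-out: 665/620 nm HTRF ratio after 1 h room-temperature detection with streptavidin-XL665 and TK antibody-cryptate. Kinase reactions (compound, substrate/ATP, enzyme, assembled on ice) ran at room temperature beforehand. Inhibition normalised to blank and positive controls, IC50 by variable-slope sigmoidal fit.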

BTK T474I = molecular target: T2, BTK T474I (Homo sapiens, UniProt Q06187, T474I); experiment: Kinase activity inhibition assay (HTRF TK Kit)
T2 construct: purchased SignalChem B10-12HH
Summary of the method: as §1

BTK kinase = molecular target: T3, BTK kinase (Homo sapiens, UniProt Q06187); experiment: Kinase activity inhibition assay (HTRF TK Kit)
T3 construct: purchased Invitrogen PV3587
Summary of the method: as §1

EGFR = molecular target: T4, EGFR (Homo sapiens, UniProt P00533); experiment: Kinase activity inhibition assay (HTRF TK Kit), selectivity
T4 construct: purchased Carna 08-115
Summary of the method: as §1

ITK = molecular target: T5, ITK (Homo sapiens, UniProt Q08881); experiment: as above
T5 construct: purchased Carna 08-181
T5 sequence (Q08881 1-620): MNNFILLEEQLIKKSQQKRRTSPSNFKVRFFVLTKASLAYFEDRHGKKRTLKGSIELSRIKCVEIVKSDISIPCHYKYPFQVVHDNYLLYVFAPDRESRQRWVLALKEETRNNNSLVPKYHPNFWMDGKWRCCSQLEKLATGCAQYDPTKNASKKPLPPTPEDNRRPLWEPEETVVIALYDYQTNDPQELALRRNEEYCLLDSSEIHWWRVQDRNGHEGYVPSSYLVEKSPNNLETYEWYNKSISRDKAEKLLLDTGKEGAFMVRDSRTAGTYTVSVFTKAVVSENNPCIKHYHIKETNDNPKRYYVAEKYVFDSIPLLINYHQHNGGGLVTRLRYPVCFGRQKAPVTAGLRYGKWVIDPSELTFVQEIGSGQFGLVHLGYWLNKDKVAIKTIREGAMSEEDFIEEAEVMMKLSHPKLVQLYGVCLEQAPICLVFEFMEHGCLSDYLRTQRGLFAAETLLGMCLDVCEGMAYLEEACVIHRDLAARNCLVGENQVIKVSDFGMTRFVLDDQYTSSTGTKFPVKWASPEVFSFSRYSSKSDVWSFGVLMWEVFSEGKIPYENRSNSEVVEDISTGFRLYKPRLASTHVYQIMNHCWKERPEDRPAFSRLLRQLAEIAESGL
Summary of the method: as §1

TEC = molecular target: T6, TEC (Homo sapiens, UniProt P42680); experiment: as above
T6 construct: purchased Carna 08-182
T6 sequence (P42680 1-631): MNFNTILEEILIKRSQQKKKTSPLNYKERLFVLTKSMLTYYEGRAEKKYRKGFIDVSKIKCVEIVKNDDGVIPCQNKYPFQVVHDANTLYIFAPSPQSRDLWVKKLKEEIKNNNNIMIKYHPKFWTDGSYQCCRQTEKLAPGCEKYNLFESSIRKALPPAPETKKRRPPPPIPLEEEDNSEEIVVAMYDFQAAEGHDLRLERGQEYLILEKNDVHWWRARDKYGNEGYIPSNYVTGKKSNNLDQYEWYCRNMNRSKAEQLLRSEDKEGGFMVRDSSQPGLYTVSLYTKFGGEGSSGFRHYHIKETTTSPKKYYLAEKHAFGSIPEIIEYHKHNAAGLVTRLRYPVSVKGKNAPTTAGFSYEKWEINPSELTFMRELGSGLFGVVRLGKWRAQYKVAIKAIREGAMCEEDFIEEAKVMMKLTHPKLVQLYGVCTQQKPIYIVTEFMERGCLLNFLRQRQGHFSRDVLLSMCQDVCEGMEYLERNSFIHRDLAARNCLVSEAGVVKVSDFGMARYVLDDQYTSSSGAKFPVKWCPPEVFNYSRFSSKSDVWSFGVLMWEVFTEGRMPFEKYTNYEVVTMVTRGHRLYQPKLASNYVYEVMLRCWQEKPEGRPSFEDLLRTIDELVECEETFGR
Summary of the method: as §1

T4 sequence (P00533 669-1210 limits assumed): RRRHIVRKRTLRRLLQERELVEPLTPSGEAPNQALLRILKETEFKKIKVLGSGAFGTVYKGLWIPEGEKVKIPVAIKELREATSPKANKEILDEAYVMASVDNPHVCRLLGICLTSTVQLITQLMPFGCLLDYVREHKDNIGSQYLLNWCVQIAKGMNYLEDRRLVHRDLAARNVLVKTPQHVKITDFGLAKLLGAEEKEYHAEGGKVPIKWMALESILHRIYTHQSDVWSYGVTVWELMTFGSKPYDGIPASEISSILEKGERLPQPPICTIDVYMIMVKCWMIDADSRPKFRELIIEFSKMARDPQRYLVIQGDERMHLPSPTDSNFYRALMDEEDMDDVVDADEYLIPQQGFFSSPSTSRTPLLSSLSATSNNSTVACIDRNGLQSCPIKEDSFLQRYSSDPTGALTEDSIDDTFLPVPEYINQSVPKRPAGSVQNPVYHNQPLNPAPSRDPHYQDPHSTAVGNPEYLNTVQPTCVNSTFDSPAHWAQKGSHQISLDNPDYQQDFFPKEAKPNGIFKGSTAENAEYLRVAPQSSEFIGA
T1 sequence (Q06187 whole entry C481S): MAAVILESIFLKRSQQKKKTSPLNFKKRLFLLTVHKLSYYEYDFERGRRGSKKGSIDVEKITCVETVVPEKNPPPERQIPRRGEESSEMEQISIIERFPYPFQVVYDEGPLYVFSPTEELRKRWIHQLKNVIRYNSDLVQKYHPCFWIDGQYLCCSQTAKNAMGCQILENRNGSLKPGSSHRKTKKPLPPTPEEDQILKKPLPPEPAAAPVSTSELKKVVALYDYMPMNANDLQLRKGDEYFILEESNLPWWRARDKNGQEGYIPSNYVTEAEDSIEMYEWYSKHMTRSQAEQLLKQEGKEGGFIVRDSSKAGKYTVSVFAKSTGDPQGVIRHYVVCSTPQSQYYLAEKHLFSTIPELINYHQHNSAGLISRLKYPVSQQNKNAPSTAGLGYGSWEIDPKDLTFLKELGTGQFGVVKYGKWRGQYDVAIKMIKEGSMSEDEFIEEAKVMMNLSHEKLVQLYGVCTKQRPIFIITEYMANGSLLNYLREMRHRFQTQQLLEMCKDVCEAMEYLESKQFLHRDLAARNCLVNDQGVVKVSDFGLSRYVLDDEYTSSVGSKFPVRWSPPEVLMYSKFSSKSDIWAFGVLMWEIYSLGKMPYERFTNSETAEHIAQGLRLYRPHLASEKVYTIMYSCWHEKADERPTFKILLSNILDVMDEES
T2 sequence (Q06187 whole entry T474I): as the sequence (Q06187 whole entry C481S) above, with T474I, S481C counted along it
T3 sequence (Q06187 whole entry): as the sequence (Q06187 whole entry C481S) above, with S481C counted along it

COc1ccc(F)cc1C(=O)NCc1ccc(-c2ncc(-c3nccn4nccc34)c3[nH]nc(N)c23)cc1 [Example 98, N-(4-(3-amino-7-(pyrazolo[1,5-a]pyrazin-4-yl)-1H-pyrazolo[4,3-c]pyridin-4-yl)benzyl)-5-fluoro-2-methoxybenzamide]
IC50 (BTK C481S): 1 to 5 nM | IC50 (BTK T474I): 50 to 500 nM | IC50 (BTK kinase): 1 to 5 nM | IC50 (EGFR): 50 to 500 nM | IC50 (ITK): > 500 nM | IC50 (TEC): 5 to 50 nM

COc1ccc(F)cc1C(=O)NCc1ccc(-c2ncc(-c3ccc(C(F)(F)F)cn3)c3[nH]nc(N)c23)cc1 [Example 24, N-(4-(3-amino-7-(5-(trifluoromethyl)pyridin-2-yl)-1H-pyrazolo[4,3-c]pyridin-4-yl)benzyl)-5-fluoro-2-methoxybenzamide]
IC50 (BTK C481S): 5 to 50 nM | IC50 (BTK T474I): 50 to 500 nM | IC50 (BTK kinase): 5 to 50 nM | IC50 (EGFR): > 500 nM | IC50 (ITK): > 500 nM | IC50 (TEC): 50 to 500 nM

COc1ccc(F)cc1C(=O)NCc1ccc(-c2ncc(-c3ccc(C(=O)N4C[C@H](C)O[C@@H](C)C4)cn3)c3[nH]nc(N)c23)cc1 [Example 53, N-(4-(3-amino-7-(5-((2S,6S)-2,6-dimethylmorpholine-4-carbonyl)pyridin-2-yl)-1H-pyrazolo[4,3-c]pyridin-4-yl)benzyl)-5-fluoro-2-methoxybenzamide]
IC50 (BTK C481S): 1 to 5 nM | IC50 (BTK T474I): 50 to 500 nM | IC50 (BTK kinase): 1 to 5 nM | IC50 (EGFR): 50 to 500 nM | IC50 (ITK): 50 to 500 nM | IC50 (TEC): 5 to 50 nM

COc1ccc(F)cc1C(=O)NCc1ccc(-c2ncc(-c3ccncn3)c3[nH]nc(N)c23)cc1 [Example 19]
IC50 (BTK C481S): 1 to 5 nM | IC50 (BTK T474I): 50 to 500 nM | IC50 (BTK kinase): 1 to 5 nM | IC50 (EGFR): > 500 nM | IC50 (ITK): > 500 nM | IC50 (TEC): 50 to 500 nM

COc1ccc(F)cc1C(=O)NCc1ccc(-c2ncc(-c3cc4ncccn4n3)c3[nH]nc(N)c23)cc1 [Example 44, N-(4-(3-amino-7-(pyrazolo[1,5-a]pyrimidin-2-yl)-1H-pyrazolo[4,3-c]pyridin-4-yl)benzyl)-5-fluoro-2-methoxybenzamide]
IC50 (BTK C481S): ≤ 1 nM | IC50 (BTK T474I): 5 to 50 nM | IC50 (BTK kinase): ≤ 1 nM | IC50 (EGFR): 5 to 50 nM | IC50 (ITK): 50 to 500 nM | IC50 (TEC): 5 to 50 nM

COc1ccc(F)cc1C(=O)NCc1ccc(-c2ncc(-c3ccc(OCCN4CCCC4)cn3)c3[nH]nc(N)c23)cc1 [Example 62, N-(4-(3-amino-7-(5-(2-(pyrrolidin-1-yl)ethoxy)pyridin-2-yl)-1H-pyrazolo[4,3-c]pyridin-4-yl)benzyl)-5-fluoro-2-methoxybenzamide]
IC50 (BTK C481S): 1 to 5 nM | IC50 (BTK T474I): 5 to 50 nM | IC50 (BTK kinase): 1 to 5 nM | IC50 (EGFR): 5 to 50 nM | IC50 (ITK): 50 to 500 nM | IC50 (TEC): 50 to 500 nM

COc1ccc(F)cc1C(=O)NCc1ccc(-c2ncc(-c3ccc(OCCN(C)C)cn3)c3[nH]nc(N)c23)cc1 [Example 60, N-(4-(3-amino-7-(5-(2-(dimethylamino)ethoxy)pyridin-2-yl)-1H-pyrazolo[4,3-c]pyridin-4-yl)benzyl)-5-fluoro-2-methoxybenzamide]
IC50 (BTK C481S): ≤ 1 nM | IC50 (BTK T474I): 5 to 50 nM | IC50 (BTK kinase): ≤ 1 nM | IC50 (EGFR): 5 to 50 nM | IC50 (ITK): 50 to 500 nM | IC50 (TEC): 5 to 50 nM

COc1ccc(F)cc1C(=O)NCc1ccc(-c2nc(C(C)C(F)(F)F)c(-c3ccn(C)n3)c3[nH]nc(N)c23)cc1 (single isomer, unassigned) [Example 6-1, N-(4-(3-amino-7-(1-methyl-1H-pyrazol-3-yl)-6-(1,1,1-trifluoropropan-2-yl)-1H-pyrazolo[4,3-c]pyridin-4-yl)benzyl)-5-fluoro-2-methoxybenzamide]
IC50 (BTK C481S): 1 to 5 nM | IC50 (BTK T474I): 5 to 50 nM | IC50 (BTK kinase): 1 to 5 nM | IC50 (EGFR): > 500 nM | IC50 (ITK): > 500 nM | IC50 (TEC): 50 to 500 nM

COc1ccc(F)cc1C(=O)NCc1ccc(-c2nc(C(C)C(F)(F)F)c(-c3cc(C)[nH]n3)c3[nH]nc(N)c23)cc1 (stereo not drawn) [Example 9, N-(4-(3-amino-7-(5-methyl-1H-pyrazol-3-yl)-6-(1,1,1-trifluoropropan-2-yl)-1H-pyrazolo[4,3-c]pyridin-4-yl)benzyl)-5-fluoro-2-methoxybenzamide]
IC50 (BTK C481S): 5 to 50 nM | IC50 (BTK T474I): 50 to 500 nM | IC50 (BTK kinase): 1 to 5 nM | IC50 (EGFR): 50 to 500 nM | IC50 (ITK): > 500 nM | IC50 (TEC): 50 to 500 nM

COc1ccc(F)cc1C(=O)NCc1ccc(-c2nc(C(C)C(F)(F)F)cc3[nH]nc(N)c23)cc1 (stereo not drawn) [Example 1, N-(4-(3-amino-6-(1,1,1-trifluoropropan-2-yl)-1H-pyrazolo[4,3-c]pyridin-4-yl)benzyl)-5-fluoro-2-methoxybenzamide]
IC50 (BTK C481S): 5 to 50 nM | IC50 (BTK T474I): > 500 nM | IC50 (BTK kinase): 5 to 50 nM | IC50 (EGFR): 50 to 500 nM | IC50 (ITK): > 500 nM | IC50 (TEC): > 500 nM

COc1ccc(F)cc1C(=O)NCc1ccc(-c2ncc(-c3ncc(C)cn3)c3[nH]nc(N)c23)cc1 [Example 39, N-(4-(3-amino-7-(5-methylpyrimidin-2-yl)-1H-pyrazolo[4,3-c]pyridin-4-yl)benzyl)-5-fluoro-2-methoxybenzamide]
IC50 (BTK C481S): ≤ 1 nM | IC50 (BTK T474I): 5 to 50 nM | IC50 (BTK kinase): ≤ 1 nM | IC50 (EGFR): 50 to 500 nM | IC50 (ITK): 50 to 500 nM | IC50 (TEC): 5 to 50 nM

COc1ccc(F)cc1C(=O)NCc1ccc(-c2ncc(-c3nc4ccccn4n3)c3[nH]nc(N)c23)cc1 [Example 58, N-(4-(7-([1,2,4]triazolo[1,5-a]pyridin-2-yl)-3-amino-1H-pyrazolo[4,3-c]pyridin-4-yl)benzyl)-5-fluoro-2-methoxybenzamide]
IC50 (BTK C481S): 1 to 5 nM | IC50 (BTK T474I): 5 to 50 nM | IC50 (BTK kinase): 1 to 5 nM | IC50 (EGFR): 50 to 500 nM | IC50 (ITK): > 500 nM | IC50 (TEC): 5 to 50 nM

COc1ccc(F)cc1C(=O)NCc1ccc(-c2ncc(-c3ccc4c(n3)nc3n4CCOC3)c3[nH]nc(N)c23)cc1 [Example 102, N-(4-(3-amino-7-(6,7-dihydro-9H-pyrido[2',3':4,5]imidazo[2,1-c][1,4]oxazin-2-yl)-1H-pyrazolo[4,3-c]pyridin-4-yl)benzyl)-5-fluoro-2-methoxybenzamide]
IC50 (BTK C481S): 5 to 50 nM | IC50 (BTK T474I): > 500 nM | IC50 (BTK kinase): 5 to 50 nM | IC50 (EGFR): 50 to 500 nM | IC50 (ITK): > 500 nM | IC50 (TEC): > 500 nM

COc1ccc(F)cc1C(=O)NCc1ccc(-c2ncc(-c3ccccn3)c3[nH]nc(N)c23)cc1 [Example 15, N-(4-(3-amino-7-(pyridin-2-yl)-1H-pyrazolo[4,3-c]pyridin-4-yl)benzyl)-5-fluoro-2-methoxybenzamide]
IC50 (BTK C481S): ≤ 1 nM | IC50 (BTK T474I): 50 to 500 nM | IC50 (BTK kinase): ≤ 1 nM | IC50 (EGFR): 50 to 500 nM | IC50 (ITK): > 500 nM | IC50 (TEC): 5 to 50 nM

COc1ccc(F)cc1C(=O)NCc1ccc(-c2ncc(-c3ccc4c(n3)nc3n4C(C)COC3)c3[nH]nc(N)c23)cc1 (stereo not drawn) [Example 103, N-(4-(3-amino-7-(6-methyl-6,7-dihydro-9H-pyrido[2',3':4,5]imidazo[2,1-c][1,4]oxazin-2-yl)-1H-pyrazolo[4,3-c]pyridin-4-yl)benzyl)-5-fluoro-2-methoxybenzamide]
IC50 (BTK C481S): 5 to 50 nM | IC50 (BTK T474I): 50 to 500 nM | IC50 (BTK kinase): 5 to 50 nM | IC50 (EGFR): 50 to 500 nM | IC50 (ITK): > 500 nM | IC50 (TEC): > 500 nM

COc1ccc(F)cc1C(=O)NCc1ccc(-c2ncc(-c3ccc(Cl)cn3)c3[nH]nc(N)c23)cc1 [Example 38, N-(4-(3-amino-7-(5-chloropyridin-2-yl)-1H-pyrazolo[4,3-c]pyridin-4-yl)benzyl)-5-fluoro-2-methoxybenzamide]
IC50 (BTK C481S): 1 to 5 nM | IC50 (BTK T474I): 50 to 500 nM | IC50 (BTK kinase): 5 to 50 nM | IC50 (EGFR): 50 to 500 nM | IC50 (ITK): > 500 nM | IC50 (TEC): 5 to 50 nM
